Laboratory results as given in ChEMBL document CHEMBL1157539, “Thousands of chemical starting points for antimalarial lead identification” (Nature, 2010).

What follows are compounds tested on Plasmodium falciparum (assay: GSK_TCMDC: Inhibition of Plasmodium falciparum 3D7 in whole erythrocytes, using parasite LDH activity as an index of growth.). Conditions: Plasmodium falciparum, 3D7.
Type: functional, organism-based

Row | SMILES | XC50 [nM]
1 | O=C(Nc1n[nH]c2nc(-c3ccco3)c(Br)cc12)c1ccc(CN2CCCC2)cc1 | 791
2 | CCN(CC)CCN(Cc1ccc(-c2ccc(C(F)(F)F)cc2)cc1)C(=O)Cn1cc(CCCCc2cccc(F)c2F)c(=O)c2ccccc21 | 883
3 | OCCNc1nc(Nc2ccccc2)nc2ccccc12 | 128
4 | Cc1[nH]c2ccccc2c1C(=O)C(C)Sc1nnc(-c2ccccc2Br)[nH]1 (stereo unspecified) | 34.8
5 | COc1cc2c(cc1OCCN1CCC(N3CCCC3)CC1)N(C(=O)/C=C/c1ccccc1Cl)CC2 | 659
6 | N=c1n(Cc2ccccc2)c2ccccc2n1CC(O)c1ccc(Cl)cc1 (stereo unspecified) | 879
7 | Cc1ccc(F)c(OCC2CCN(c3ncc(C(=O)NC4CC4)cc3Cl)CC2)c1 | 902
8 | CC(CCc1ccccc1)NCC(O)c1ccc2c3c(cccc13)C(=O)N2C (stereo unspecified) | 812
9 | CCC(C)NC(=O)Cn1c2ncccc2c(=O)n1-c1ccc(C)cc1 (stereo unspecified) | 1260
10 | Cc1[nH]c(C)c(-c2ccc(-c3ccc(OC(F)(F)F)cc3)cc2)c(=O)c1Cl | 35.4
11 | O=C(Nc1ccc(N2CCCCC2)c(Cl)c1)c1nc[nH]n1 | 449
12 | O=C(Nc1ccc(Cn2ncc(N3CCCNCC3)c(Cl)c2=O)cc1)Nc1ccc(C(F)(F)F)cc1 | 731
13 | CCN(CC)CCCN(CCCN(CC)CC)c1cc(C)nc(Nc2ccc(Cl)cc2)n1 | 211
14 | O=C(O)C1CC(=O)N(c2ccc(Cl)cc2)C1 (stereo unspecified) | 219
15 | Cc1cccc(N2CCN(C3CCC(NC(=O)c4cc5ccccc5[nH]4)CC3)CC2)c1C (stereo unspecified) | 609
16 | COC(=O)c1ccc(OCC(C)NCC(O)c2cccc(C(F)(F)F)c2)cc1 (stereo unspecified) | 838
17 | COc1ccc(OCc2ccccn2)c(C2CCN(CCCCNC(=O)c3ccc(NC(=O)c4ccc(Cl)cc4)cc3)CC2)c1 | 764
18 | CC(C)CN(C)Cc1ccc(-c2ccc(-c3nc4ccccc4[nH]3)s2)cc1 | 752
19 | CC(C)NCc1ccc(-c2ccc(NS(=O)(=O)c3cccc4cccnc34)cc2)cc1 | 807
20 | COc1ccc(-c2cnc(N)c(-c3nc4cc(Br)ccc4[nH]3)c2)cc1 | 1560
21 | O=C(Nc1ccc(-c2cccc(-c3nc4cc(F)ccc4[nH]3)c2)cc1)Nc1ccc(Cl)c(Cl)c1 | 647
22 | COc1ccc(C=NNc2cc(C)nc3ccc(OC)cc23)c(OC)c1 | 778
23 | CC(=O)Nc1ccc(OCCCN(Cc2ccccc2C(F)(F)F)c2ccc(C(F)(F)F)c(C#N)c2)c(Cl)c1 | 1450
24 | Cn1nc(C(F)(F)F)c(-c2ccc(F)cc2)c1NC(=O)Nc1ccccc1 | 804

Row | SMILES | XC50 [nM]
25 | CCCN1CCN(CCCCNc2c3ccccc3nc3ccccc23)CC1 | 409
26 | Cc1noc(C)c1-c1ccc(C(=C2CCCCCC2)c2ccc(O)cc2)cc1 | 189
27 | CC[C@H]1CN2CC[C@H]1C[C@H]2[C@H](O)c1cc(N2CCCC(C(=O)N(CC)CC)C2)nc2ccc(OC)cc12 (stereo partly specified) | 73.1
28 | O=C(Nc1ccc(-c2ccc(-c3nc4cc(C(F)(F)F)ccc4[nH]3)s2)cc1)c1ccoc1 | 854
29 | O=C(CN1CCC(NCc2cnc(-c3ccc(Cl)cc3)[nH]2)CC1)N1CCc2ccccc21 | 650
30 | CNCCNCc1cccc(-c2cccc(-c3nc4cccc(C)c4[nH]3)c2)c1 | 766
31 | COc1ccccc1/C=C/C(=O)N(C)C1CCN(CCCCCNC(=O)/C=C/c2ccc(Cl)c(Cl)c2)CC1 | 438
32 | COc1ccccc1-c1csc(C(=O)NCC2CCN(Cc3ccc(C(C)(C)C)cc3)C2)c1 (stereo unspecified) | 1110
33 | CCOC(=O)c1c(C)n(-c2ccccc2)c2ccc(OC(=O)COc3ccc(Cl)cc3Cl)cc12 | 429
34 | CC(=O)N1CCC(C(=O)Nc2ccc(-c3cccc(-c4nc5cccc(C)c5[nH]4)c3)cc2)CC1 | 313
35 | CC(C)CNCc1ccc(-c2cccc(CN(C(=O)NCCc3ccccc3)C3CCN(Cc4ccccc4)CC3)c2)cc1 | 579
36 | CCc1ccc(Cc2cnc3nc(N)nc(N)c3c2C)cc1 | 202
37 | CC(C)CNCc1cccc(-c2ccc(CN(CCCN3CCN(C)CC3)C(=O)/C=C/c3ccccc3)cc2)c1 | 857
38 | Cc1cc(OCC2CCCN(c3ncc(C(=O)NC4CC4)cc3Cl)C2)ccc1F (stereo unspecified) | 1490
39 | CCN(CC)CCCOC(=O)c1ccc2c(c1)-c1ccc(C(=O)OCCCN(CC)CC)c3cccc-2c13 | 933
40 | Cc1cc(O)c(-c2cc(C(=O)Nc3cccnc3)[nH]n2)cc1C | 772
41 | COc1cccc(-c2cnc(N)c(-c3nc4ccc(C(F)(F)F)cc4[nH]3)c2)c1 | 652
42 | O=C(C=Cc1cccs1)N(CCCn1ccnc1)c1nc2ccc(F)cc2s1 | 1600
43 | CCC(C)c1cccc(C(C)CC)c1OCCCON1C(N)=NC(N)=NC1(C)C (stereo unspecified) | 20
44 | Cc1nnsc1C(=O)Nc1cccc(-c2ccc(-c3nc4cc(F)ccc4[nH]3)cc2)c1 | 96.2
45 | CN1CCC(NCc2ccc(-c3ccc(S(=O)(=O)NCc4ccccc4)cc3)cc2)CC1 | 832
46 | COc1ccc2nccc([C@@H](O)CN3CCC(NCCOc4cccc(C(F)(F)F)c4)CC3)c2c1 | 159
47 | O=C(N[C@@H](Cc1ccccc1)C(=O)NCCN1CCCCC1)c1ccc(O)c(-c2ccc(Cl)c(Cl)c2)c1 | 1520
48 | CC(C)(C)c1ccc(CN2CCC(NC(=O)c3ccc(-c4cccc(Cl)c4)s3)CC2)cc1 | 1070

Row | SMILES | XC50 [nM]
49 | CC(C)c1ccc(Cn2cc(-c3ccncc3)c3cc(OCc4ccccc4)ccc32)cc1 | 706
50 | C=C1C[C@@H](n2cnc3c(NC(=O)c4ccccc4)ncnc32)[C@@H](F)[C@@H]1OC(c1ccccc1)(c1ccccc1)c1ccccc1 | 145
51 | CCOC(=O)CNC(=O)N1CCN(C(=O)NCC(=O)OCC)CC1 | 848
52 | O=[N+]([O-])c1ccc(-n2nc(Cc3ccccc3)n(Cc3cccc(F)c3)c2=S)c(C(F)(F)F)c1 | 769
53 | Cc1cc(=NN=Cc2ccccc2Cl)c2ccc(F)cc2[nH]1 | 257
54 | O=C(Nc1ccc(CN2CCOCC2)cc1)c1ccc(-c2ccc(Br)cc2)o1 | 1120
55 | COc1nc(N)ncc1C(=O)NC1CN2CCC1CC2 (stereo unspecified) | 235
56 | CCCCCCCSc1ccc(CC(C)NCC(O)c2cccc(Cl)c2)cc1 (stereo unspecified) | 178
57 | COc1cccc2cc(C(=O)N[C@@H](CC(C)C)C(=O)N[C@H](/C=N/NC(=O)N3CCN(C)CC3)CCc3ccccc3)oc12 | 616
58 | CCOc1cc(OCC)c2ccccc2c1CNCCCCCCNCc1c(OCC)cc(OCC)c2ccccc12 | 305
59 | Clc1ccc(CNc2nc(NCCc3c[nH]cn3)nc(NC3CCCCC3)n2)cc1 | 209
60 | O=C(Nc1cccc(CN2CCCN(Cc3cccnc3)CC2)c1)c1ccc(Cl)c(Cl)c1 | 928
61 | O=c1cc(NCCCNCc2cc3ccccc3s2)[nH]c2ccccc12 | 1270
62 | N#Cc1cnc(Nc2ccc(Oc3ccccc3)cc2)nc1Nc1cccc(S(N)(=O)=O)c1 | 555
63 | COCCNCc1ccc(-c2ccccc2CNC2CCN(Cc3ccccc3)CC2)cc1 | 975
64 | Cc1[nH]c2c(C)cccc2c1C1CCN(CCC2CCN(C(=O)/C=C/c3ccc(Cl)c(Cl)c3)CC2)CC1 | 636
65 | CN(CC(=O)Nc1ccc(F)cc1)C(=O)c1ccc(-c2ccc(F)cc2)o1 | 934
66 | OCC1CCN(Cc2ccc(-c3cccc(-c4nc5cc(C(F)(F)F)ccc5[nH]4)c3)cc2)CC1 | 483
67 | COc1ccc(-c2cnc(N)nc2N)cc1Cl | 1400
68 | O=C(NCCC1CCN(CCc2c[nH]c3ccccc23)CC1)Nc1ccc(Cl)c(Cl)c1 | 834
69 | CN(C)c1ccc(-c2csc(C(=O)NCC3CCN(CC4CCCCC4)C3)c2)cc1 (stereo unspecified) | 1140
70 | COc1ccc(C=CC(=O)N2CCC(CN3CCC(c4c[nH]c5ccccc45)CC3)CC2)cc1OC | 1070
71 | COc1ccc(CCC(C)N2CC(N)C(c3cn(C)c4cnccc34)C2)cc1 (stereo unspecified) | 1360
